Source: US12187702B2, “Sulfonamideurea compounds” (Inflazome Limited, priority 2018, dated 2025)
Where a name gives a salt, the structure may show the parent alone.

Target: NLRP3 (Homo sapiens, UniProt Q96P20)
Test: THP-1 cells pyroptosis assay (LPS + nigericin, resazurin read-out)
Assay type: cell-based
Set-up: Seed THP-1 cells (25,000 cells/well) containing 1.0 μg/ml LPS; host or cells: THP-1 cells
Settings: THP-1 cells, 1 μg/ml LPS, 5 μM nigericin; NLRP3 inhibitory activity; read-out: THP IC50
Protocol: THP-1 cells (ATCC #TIB-202) were grown in RPMI containing L-glutamine (Gibco #11835) supplemented with 1 mM sodium pyruvate (Sigma #S8636) and penicillin (100 units/ml)/streptomycin (0.1 mg/ml) (Sigma #P4333) in 10% Fetal Bovine Serum (FBS) (Sigma #F0804). The cells were routinely passaged and grown to confluency (˜10^6 cells/ml). On the day of the experiment, THP-1 cells were harvested and resuspended into RPMI medium (without FBS). The cells were then counted and viability (>90%) checked by Trypan blue (Sigma #T8154). Appropriate dilutions were made to give a concentration of 625,000 cells/ml. To this diluted cell solution was added LPS (Sigma #L4524) to give a 1 μg/ml Final Assay Concentration (FAC). 40 μl of the final preparation was aliquoted into each well of a 96-well plate. The plate thus prepared was used for compound screening.
The following method step-by-step assay was followed for compound screening. • 1. Seed THP-1 cells (25,000 cells/well) containing 1.0 μg/ml LPS in 40 μl of RPMI medium (without FBS) in 96-well, black walled, clear bottom cell culture plates coated with poly-D-lysine (VWR #734-0317) • 2. Add 5 μl compound (8 points half-log dilution, with 10 μM top dose) or vehicle (DMSO 0.1% FAC) to the appropriate wells • 3. Incubate for 3 hrs at 37° C., 5% CO2 • 4. Add 5 μl nigericin (Sigma #N7143) (FAC 5 μM) to all wells • 5. Incubate for 1 hr at 37° C., 5% CO2 • 6. At the end of the incubation period, spin plates at 300×g for 3 mins and remove supernatant • 7. Then add 50 μl of resazurin (Sigma #R7017) (FAC 100 μM resazurin in RPMI medium without FBS) and incubate plates for a further 1-2 hrs at 37° C. and 5% CO2 • 8. Plates were read in an Envision reader at Ex 560 nm and Em 590 nm • 9. IC50 data is fitted to a non-linear regression equation (log inhibitor vs response-variable slope 4-parameters)

Chain of NLRP3 (Q96P20 whole entry): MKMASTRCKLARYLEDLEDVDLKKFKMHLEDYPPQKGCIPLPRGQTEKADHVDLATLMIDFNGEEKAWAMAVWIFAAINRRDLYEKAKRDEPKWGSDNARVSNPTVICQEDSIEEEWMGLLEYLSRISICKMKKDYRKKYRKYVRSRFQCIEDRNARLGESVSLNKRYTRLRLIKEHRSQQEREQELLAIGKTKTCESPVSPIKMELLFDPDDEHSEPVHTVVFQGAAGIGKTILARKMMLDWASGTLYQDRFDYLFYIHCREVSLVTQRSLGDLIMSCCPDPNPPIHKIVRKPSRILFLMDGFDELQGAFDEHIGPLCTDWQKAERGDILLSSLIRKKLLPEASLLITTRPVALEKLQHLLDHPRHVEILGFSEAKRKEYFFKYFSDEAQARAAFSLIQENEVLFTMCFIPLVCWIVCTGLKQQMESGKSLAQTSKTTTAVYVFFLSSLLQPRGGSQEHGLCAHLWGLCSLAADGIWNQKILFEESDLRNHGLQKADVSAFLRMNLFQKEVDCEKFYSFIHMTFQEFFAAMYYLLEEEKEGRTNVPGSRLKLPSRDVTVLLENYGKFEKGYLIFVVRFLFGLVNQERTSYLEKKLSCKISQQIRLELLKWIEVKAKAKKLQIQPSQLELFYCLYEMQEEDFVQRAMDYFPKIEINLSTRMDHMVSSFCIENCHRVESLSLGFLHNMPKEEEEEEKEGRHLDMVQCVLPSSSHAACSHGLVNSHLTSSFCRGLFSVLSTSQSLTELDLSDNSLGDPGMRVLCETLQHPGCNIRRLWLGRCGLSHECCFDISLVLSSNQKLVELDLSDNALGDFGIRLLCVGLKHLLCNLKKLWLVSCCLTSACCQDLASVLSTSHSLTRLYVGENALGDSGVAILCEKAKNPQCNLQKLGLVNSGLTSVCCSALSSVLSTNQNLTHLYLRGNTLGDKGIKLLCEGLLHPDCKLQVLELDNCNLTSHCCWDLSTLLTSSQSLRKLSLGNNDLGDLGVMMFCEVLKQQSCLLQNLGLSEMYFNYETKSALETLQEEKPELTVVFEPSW

Row | IC50 [µM] | Structure (SMILES)
1 | < 1 | COCCN(C)S(=O)(=O)NC(=O)Nc1c2c(cc3c1CCC3)CCC2 [Example 7, 3-Methyl-((2-Methoxyethyl)sulfamoyl)-1-(1,2,3,5,6,7-hexahydro-s-indacen-4-yl)urea, potassium salt]
2 | < 5 | CC(C)CN(CCN(C)C)S(=O)(=O)NC(=O)Nc1c2c(cc3c1CCC3)CCC2 [Example 12, 3-(N-(2-(Dimethylamino)ethyl)-N-isobutylsulfamoyl)-1-(1,2,3,5,6,7-hexahydro-s-indacen-4-yl)urea, potassium salt]
3 | < 1 | CN(C)CCN(CCc1ccccc1)S(=O)(=O)NC(=O)Nc1c2c(cc3c1CCC3)CCC2 [Example 13, 3-(N-(2-(Dimethylamino)ethyl)-N-phenethylsulfamoyl)-1-(1,2,3,5,6,7-hexahydro-s-indacen-4-yl)urea, potassium salt]
4 | < 5 | CC(CN(C)C)NS(=O)(=O)NC(=O)Nc1c2c(cc3c1CCC3)CCC2 (centres unmarked) [Example 16, 3-(N-(1-(Dimethylamino)propan-2-yl)sulfamoyl)-1-(1,2,3,5,6,7-hexahydro-s-indacen-4-yl)urea, potassium salt]
5 | < 1 | CN(C)C1CN(S(=O)(=O)NC(=O)Nc2c3c(cc4c2CCC4)CCC3)C1 [Example 17, 3-(Dimethylamino)-N-((1,2,3,5,6,7-hexahydro-s-indacen-4-yl)carbamoyl)azetidine-1-sulfonamide, potassium salt]
6 | < 5 | CCN(CC)CCN(CC)S(=O)(=O)NC(=O)Nc1c2c(cc3c1CCC3)CCC2 [Example 18, 3-(N-(2-(Diethylamino)ethyl)-N-ethylsulfamoyl)-1-(1,2,3,5,6,7-hexahydro-s-indacen-4-yl)urea, potassium salt]
7 | < 1 | CCN1CCCC(NS(=O)(=O)NC(=O)Nc2c3c(cc4c2CCC4)CCC3)C1 (centres unmarked) [Example 19, 3-(N-(1-Ethylpiperidin-3-yl)sulfamoyl)-1-(1,2,3,5,6,7-hexahydro-s-indacen-4-yl)urea, potassium salt]
8 | < 5 | CCN1CCN(S(=O)(=O)NC(=O)Nc2c3c(cc4c2CCC4)CCC3)CC1 [Example 21, 4-Ethyl-N-((1,2,3,5,6,7-hexahydro-s-indacen-4-yl)carbamoyl) piperazine-1-sulfonamide]
9 | < 0.5 | CN1CCCCC1CN(C)S(=O)(=O)NC(=O)Nc1c2c(cc3c1CCC3)CCC2 (centres unmarked) [Example 22, 3-(N-methyl-N-((1-methylpiperidin-2-yl)methyl)sulfamoyl)-1-(1,2,3,5,6,7-hexahydro-s-indacen-4-yl)urea, potassium salt]
10 | < 5 | O=C(Nc1c2c(cc3c1CCC3)CCC2)NS(=O)(=O)N1CC(N2CCCC2)C1 [Example 23, potassium salt]
11 | < 10 | O=C1Cc2cc(NS(=O)(=O)NC(=O)Nc3c4c(cc5c3CCC5)CCC4)ccc2N1 [Example 24, 3-(N-(2-Oxoindolin-5-yl)sulfamoyl)-1-(1,2,3,5,6,7-hexahydro-s-indacen-4-yl)urea, potassium salt]
12 | < 1 | CC(CN(C)C)N(C)S(=O)(=O)NC(=O)Nc1c2c(cc3c1CCC3)CCC2 (centres unmarked) [Example 27, 3-(N-(1-(dimethylamino)propan-2-yl)-N-methyl)sulfamoyl)-1-(1,2,3,5,6,7-hexahydro-s-indacen-4-yl)urea, potassium salt]
13 | < 5 | CNCCN(C)S(=O)(=O)NC(=O)Nc1c2c(cc3c1CCC3)CCC2 [Example 32, 3-(N-Methyl-N-(2-(methylamino)ethyl))sulfamoyl)-1-(1,2,3,5,6,7-hexahydro-s-indacen-4-yl)urea, potassium salt]
14 | < 5 | CC(=O)N(C)CCN(C)S(=O)(=O)NC(=O)Nc1c2c(cc3c1CCC3)CCC2 [Example 41, N-(2-((N-((1,2,3,5,6,7-Hexahydro-s-indacen-4-yl)carbamoyl)sulfamoyl)(methyl)amino)ethyl)-N-methylacetamide, potassium salt]
15 | < 1 | CN(C)CCCCNS(=O)(=O)NC(=O)Nc1c2c(cc3c1CCC3)CCC2 [Example 48, 3-(N-(4-(Dimethylamino)butyl)sulfamoyl)-1-(1,2,3,5,6,7-hexahydro-s-indacen-4-yl)urea, potassium salt]
16 | < 10 | CN(C)CCN(CCN(C)C)S(=O)(=O)NC(=O)Nc1c2c(cc3c1CCC3)CCC2 [Example 51, 3-(N,N-Bis(2-(dimethylamino)ethyl)sulfamoyl)-1-(1,2,3,5,6,7-hexahydro-s-indacen-4-yl)urea, potassium salt]
17 | < 5 | CCN(CC)CCN(C)S(=O)(=O)NC(=O)Nc1c2c(cc3c1CCC3)CCC2 [Example 53, 3-(N-(2-(Diethylamino)ethyl)-N-methyl)sulfamoyl)-1-(1,2,3,5,6,7-hexahydro-s-indacen-4-yl)urea, potassium salt]
18 | < 5 | O=C(Nc1c2c(cc3c1CCC3)CCC2)NS(=O)(=O)NCCCCO [Example 54, 3-((N-(4-Hydroxybutyl))sulfamoyl)-1-(1,2,3,5,6,7-hexahydro-s-indacen-4-yl)urea, potassium salt]
19 | < 1 | Cn1ccc(NS(=O)(=O)NC(=O)Nc2c3c(cc4c2CCC4)CCC3)n1 [Example 55, 3-((N-(1-Methyl-1H-pyrazol-3-yl))sulfamoyl)-1-(1,2,3,5,6,7-hexahydro-s-indacen-4-yl)urea, potassium salt]
20 | < 5 | CN(C)C(C)(C)CNS(=O)(=O)NC(=O)Nc1c2c(cc3c1CCC3)CCC2 [Example 57, 3-(N-(2-(Dimethylamino)-2-methylpropyl)sulfamoyl)-1-(1,2,3,5,6,7-hexahydro-s-indacen-4-yl)urea, potassium salt]
21 | < 5 | CN(C)CC(C)(C)NS(=O)(=O)NC(=O)Nc1c2c(cc3c1CCC3)CCC2 [Example 59, 3-(N-(1-(Dimethylamino)-2-methylpropan-2-yl)sulfamoyl)-1-(1,2,3,5,6,7-hexahydro-s-indacen-4-yl)urea, potassium salt]
22 | < 1 | O=C(Nc1c2c(cc3c1CCC3)CCC2)NS(=O)(=O)N1CCN2CCC1C2 (centres unmarked) [Example 60, potassium salt]
23 | < 1 | CN1C[C@@H]2C[C@H]1CN2S(=O)(=O)NC(=O)Nc1c2c(cc3c1CCC3)CCC2 [Example 67, (1S,4S)—N-((1,2,3,5,6,7-Hexahydro-s-indacen-4-yl)carbamoyl)-5-methyl-2,5-diazabicyclo[2.2.1]heptane-2-sulfonamide, potassium salt]

Row | Structure (SMILES) | IC50 [µM]
24 | CC(C)N1[C@@H]2CC[C@H]1C[C@@H](NS(=O)(=O)NC(=O)Nc1c3c(cc4c1CCC4)CCC3)C2 [Example 33, (1R,3r,5S)-8-Isopropyl-8-azabicyclo[3.2.1]octan-3-(N-((1,2,3,5,6,7-hexahydro-s-indacen-4-yl)carbamoyl)-sulfonamide)] | < 5
25 | CC(C)N1[C@@H]2CC[C@H]1C[C@H](NS(=O)(=O)NC(=O)Nc1c3c(cc4c1CCC4)CCC3)C2 [Example 63, (1R,3s,5S)-8-isopropyl-8-azabicyclo[3.2.1]octan-3-(N-((1,2,3,5,6,7-hexahydro-s-indacen-4-yl)carbamoyl)-sulfonamide)] | < 1
26 | CCN(CC)[C@H]1C[C@H]2CC[C@@H](C1)N2S(=O)(=O)NC(=O)Nc1c2c(cc3c1CCC3)CCC2 [Example 64, (1R,3r,5S)-3-(Diethylamino)-N-((1,2,3,5,6,7-hexahydro-s-indacen-4-yl)carbamoyl)-8-azabicyclo[3.2.1]octane-8-sulfonamide] | < 0.5
